This is an account of results in patent US6303612A, “Derivatives of hydroxyphenylsulfanylbenzoic and hydroxphenylsulfanylarylacetic acids” (Leciva, A.S., priority 1998, dated 2001).

The target in one assay is LTB4 receptor (Cavia porcellus, UniProt H0VYV8). In words: LTB4 receptor binding study. To be noted: 3H-LTB4, guinea-pig spleen membranes; for IC50: read-out: Inh. of LTB4 rec. binding, IC50; for inhibition at 20 µM: read-out: Inh. of LTB4 rec. binding, %. Here is the method: LTB4 Receptor Binding Study
LTB4 receptor, sequence (H0VYV8 1-348): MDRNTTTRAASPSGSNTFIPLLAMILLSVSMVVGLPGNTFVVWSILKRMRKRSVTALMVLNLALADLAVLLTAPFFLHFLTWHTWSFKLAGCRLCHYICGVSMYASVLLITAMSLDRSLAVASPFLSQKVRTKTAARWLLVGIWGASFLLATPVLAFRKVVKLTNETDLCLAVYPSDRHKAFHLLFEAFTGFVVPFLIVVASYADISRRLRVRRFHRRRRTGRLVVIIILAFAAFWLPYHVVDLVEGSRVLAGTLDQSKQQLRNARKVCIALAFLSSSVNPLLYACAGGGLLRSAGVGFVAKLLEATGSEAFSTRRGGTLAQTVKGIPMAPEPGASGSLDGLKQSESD
A slightly modified method of Cheng and coworkers (Cheng J. B. et al.: J. Pharm. Expl. Ther. 236, 126 (1986)) was used. The membrane fraction was prepared from male guinea-pig spleen; 2 mg of membranes were incubated with 0.3 nM ^3 H-LTB4 at 25° C. for 30 min in 100 μl of the incubated mixture. The nonspecific binding was determined in the presence of 0.1 μM LTB4. The membranes were filtered though Whatman GF/C paper and washed triply with buffer. The radioactivity was measured by liquid scintillation spectrometry, and the specific binding of ^3 H-LTB4 to the receptor was determined.

The subject of assay [1] is LTB4 production in rat polymorphonuclear cells. In words: Ex vivo inhibition of LTB4 production (LTB4 biosynthesis). It is filed as cell-based. To be noted: for Inh. of LTB4 biosynth., %: at 30 μg (%/μg); for IC50: Rattus norvegicus, read-out: Inh. of LTB4 biosynth., IC50. How it is done:
Ex vivo Inhibition of LTB4 Production The production of LTB4 was determined in rat polymorphonuclear cells from pleural exudate elicited by heat-activated rat serum (Palmer R. M. J., Salmon J. A.: Immunology 50, 65 (1983)). The cells were stimulated with the Ca ionophore A 23187 (Sigma) and incubated with various concentrations of the drugs tested. The sample containing only buffer was used for the determination of unaffected biosynthesis; the complete inhibition was measured in a sample with 100 μg of NDGA in 1 ml. LTB4 was determined in supernatant using a commercial RIA kit (Amersham).

The test system of a further assay is Wistar-Han rats. Kind of assay: Inhibition of carrageenan edema. In kind it is in vivo. To be noted: Rattus norvegicus, dose 100 mg/kg; read-out: CE: inhibition of carrageenan-induced edema, % of inh.
The target of another assay is T1, LTD4 receptor (Cavia porcellus, UniProt Q2NNR5).
T1 construct: The membrane fraction was prepared from male guinea-pig lungs; from tissue; host or cells: male guinea-pig lung membranes
T1 sequence (Q2NNR5 1-340): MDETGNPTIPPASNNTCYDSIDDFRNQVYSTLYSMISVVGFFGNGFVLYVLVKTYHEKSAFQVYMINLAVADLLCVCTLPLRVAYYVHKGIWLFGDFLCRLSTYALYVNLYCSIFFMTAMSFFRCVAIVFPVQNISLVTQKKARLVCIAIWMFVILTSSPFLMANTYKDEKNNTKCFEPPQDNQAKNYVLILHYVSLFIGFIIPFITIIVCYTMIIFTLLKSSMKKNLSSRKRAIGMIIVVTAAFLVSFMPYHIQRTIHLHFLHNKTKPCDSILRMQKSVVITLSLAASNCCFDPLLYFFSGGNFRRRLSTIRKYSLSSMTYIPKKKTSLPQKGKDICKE
In words: LTD4 receptor binding study. To be noted: 3H-LTD4, guinea-pig lung membranes; for IC50: read-out: Inh. of LTD4 rec. binding, IC50; for inhibition at 100 µM: read-out: Inh. of LTD4 rec. binding, %. Here is the method:
LTD4 Receptor Binding Study
This study was performed according to the method of Burns and coworkers (Burns R. F. et al.: Life Sci. 33, 645 (1983)). The membrane fraction was prepared from male guinea-pig lungs, and 4 mg of this fraction were incubated with 0.4 nM ^3 H-LTD4 for 60 min at 25° C. in 100 μl of the incubated mixture. The nonspecific binding was determined in the presence of 0.1 μM LTD4. The filtration of the membranes, washing, and radioactivity measurement were as above.

The next assay deals with rats. In words: Inhibition of carrageenan-induced pleuritis in rats. In kind it is in vivo. To be noted: Rattus norvegicus, po, 4 h, dose 100 mg/kg, oral, values with mark n: p > 0.05. Here is the method:
Inhibition of Carrageenan-induced Pleuritis in Rats
(Hidaka T. J.: Pharm. Pharmacol. 38, 242 (1986) 1 ml of 0.5% carrageenan solution in saline was administered intrapleurally to experimental animals under mild ether anesthesia. Test drugs were administered in single oral dose 1 h before carrageenan injection, 4 h following the carrageenan application the rats were killed and exudate was withdrawn from opened pleural cavity. The volume of exudate, its cellularity and total cell number were determined.

A further assay has as its system male mice. Kind of assay: Inhibition of arachidonic acid-induced ear inflammation in mice. It is filed as in vivo. To be noted: Mus musculus, po, 1 h. Here is the method:
Inhibition of Arachidonic Acid-induced Ear Inflammation in Mice (Opas E. E. et al.: J. Invest. Dermatol. 84, 253 (1985) Ear inflammation was induced in male mice by 20 μl of arachidonic acid dissolved in acetone (concentration 100 mg/ml). The mice were sacrificed 1 h after application of arachidonic acid and the ears were cut off by standard means. The other, vehicle-treated ear of the same animal served as a control. The degree of ear hyperemia and the weight of ear lobes were evaluated. Test compounds were administered orally 1 h before the induction of inflammation.

The subject of assay [2] is peroxidation of lipids from the hepatic cells membranes. Kind of assay: Antioxidant effect in vitro. In kind it is biochemical. To be noted: at 100 μg. The text has this: Antioxidant Effect in vitro
The end-product, malonic dialdehyde, was transformed to coloured complex with thiobarbituric acid and determined spectrophotometrically. The antioxidant effect was expressed in % of peroxidation inhibition in the presence of the compound tested in comparison to a control sample.

The mark [3] stands for this setting: read-out: Experimental pleuritis, A: volume of exudate in pleural cavity, % of inh.
The mark [4] stands for this setting: read-out: Experimental pleuritis, B: number of cells, % of inh.
Setting [5] is: read-out: Experimental pleuritis, C: cellularity in a volume unit, % of inh.
[6] abbreviates: values with mark n: p > 0.05, read-out: Ear edema, D: edema of ear lobe, % of inh.
Where [7] appears, read: values with mark n: p > 0.05, read-out: Ear edema, E: hyperemia of ear lobe, % of inh.

Converted amounts (≈) assume the structure as drawn. Where two headings read alike, the source gives them in different places.

Consider `CCCc1c(OCCCOc2cccc(Sc3ccccc3C(=O)O)c2)ccc(C(C)=O)c1O` [Compound 6, 2-(3-(3-(4-Acetyl-3-hydroxy-2-propylphenoxy)propoxy)phenylsulfanyl)benzoic Acid], for which the IC50 is 20.6 µM on LTB4 receptor and 4.1 µM on LTD4 receptor. For the same molecule, at LTB4 receptor, the inhibition at 20 µM is 50%. Besides, the “Inh. of LTB4 biosynth., %” value in assay [1] was found to be 73%. Further, the inhibition in vivo at 100 mg/kg came to 22% in the assay on Wistar-Han rats, 26% in the assay on rats (setting [3]), 29% in the assay on rats (setting [4]) and 6% with rats (setting [5]). In addition, the inhibition at 100 µM at LTD4 receptor turned out to be 100%. Also, the values for the inhibition in vivo at 200 mg/kg in the assay on male mice (setting [6]) and with male mice (setting [7]) were 9% and 8%, respectively. Also, in assay [2], the “Antiox. effect, % of peroxidation inhibition” value is reported as 19%.

Regarding `CCCc1c(OCCOc2ccc(Sc3ccc(C(=O)O)cc3)cc2)ccc(C(C)=O)c1O` [Compound 1, 4-(4-(2-(4-Acetyl-3-hydroxy-2-propylphenoxy)ethyloxy)phenylsulfanyl)benzoicAcid], the IC50 at LTB4 receptor stood at 17 µM; in assay [1] it was 3.5 µg/mL (≈ 7.5 µM); at LTD4 receptor, 10.8 µM. The inhibition at 20 µM on LTB4 receptor is 61%. Besides, the “Inh. of LTB4 biosynth., %” value in assay [1] is 100%. In addition, the inhibition in vivo at 100 mg/kg in the assay with Wistar-Han rats came to 31%; in the assay with rats (setting [3]), 8%; in the assay on rats (setting [4]), 17%; with rats (setting [5]), 9%. In addition, at LTD4 receptor, the inhibition at 100 µM came out at 98%. Further, the results for the inhibition in vivo at 200 mg/kg with male mice (setting [6]) and in the assay with male mice (setting [7]) were 13% and 8%, respectively. The “Antiox. effect, % of peroxidation inhibition” value in assay [2] is 54%.

As for `CCCc1c(OCCOc2cccc(Sc3ccc(C(=O)O)cc3)c2)ccc(C(C)=O)c1O` [Compound 2, 4-(3-(2-(4-Acetyl-3-hydroxy-2-propylphenoxy)ethyloxy)phenylsulfanyl)benzoicAcid], the IC50 was found to be 5.2 µM at LTB4 receptor, 0.8 µg/mL (≈ 1.71 µM) in assay [1] and 26.1 µM at LTD4 receptor. In addition, at LTB4 receptor, the inhibition at 20 µM was found to be 98%. The “Inh. of LTB4 biosynth., %” value in assay [1] worked out at 100%. Besides, the inhibition in vivo at 100 mg/kg in the assay on Wistar-Han rats was 30%; with rats (setting [3]) it was 2%; with rats (setting [4]), 43%; in the assay on rats (setting [5]) it was 46%. For the same molecule, at LTD4 receptor, the inhibition at 100 µM was 88%. For the same molecule, the inhibition in vivo at 200 mg/kg in the assay on male mice (setting [6]) was 18%; in the assay with male mice (setting [7]) it was 2%. The “Antiox. effect, % of peroxidation inhibition” value in assay [2] is 41%.

For the molecule `CCCc1c(OCCCCOc2cccc(Sc3ccc(C(=O)O)cc3[N+](=O)[O-])c2)ccc(C(C)=O)c1O` [Compound 9, 4-(3-(4-(4-Acetyl-3-hydroxy-2-propylphenoxy)butoxy)phenylsulfanyl)-3-nitrobenzoic Acid], the IC50 on LTB4 receptor is 15 µM; on LTD4 receptor it was 48.4 µM. In addition, at LTB4 receptor, the inhibition at 20 µM was found to be 65%. In assay [1], the “Inh. of LTB4 biosynth., %” value was 100%. For the same molecule, the inhibition in vivo at 100 mg/kg amounted to 19% in the assay on Wistar-Han rats, 34% with rats (setting [3]), 54% in the assay with rats (setting [4]) and 30% in the assay on rats (setting [5]). In addition, the inhibition at 100 µM on LTD4 receptor was determined as 53%. Further, the values for the inhibition in vivo at 200 mg/kg with male mice (setting [6]) and with male mice (setting [7]) were 14% and 2%, respectively. Besides, in assay [2], the “Antiox. effect, % of peroxidation inhibition” value came to 40%.

Take `CCCc1c(OCCCCOc2ccc(Sc3ccc([N+](=O)[O-])cc3C(=O)O)cc2)ccc(C(C)=O)c1O` [Compound 10, 2-(4-(4-(4-Acetyl-3-hydroxy-2-propylphenoxy)butoxy)phenylsulfanyl)-5-nitrobenzoic Acid]: the IC50 on LTB4 receptor was found to be 13 µM; at LTD4 receptor it was 15.2 µM. At LTB4 receptor, the inhibition at 20 µM turned out to be 66%. In addition, in assay [1], the “Inh. of LTB4 biosynth., %” value is given as 100%. The inhibition in vivo at 100 mg/kg in the assay on Wistar-Han rats was 22%; in the assay on rats (setting [3]), 14%; in the assay on rats (setting [4]) it was 31%; in the assay on rats (setting [5]), 19%. Moreover, the inhibition at 100 µM at LTD4 receptor came out at 89%. The inhibition in vivo at 200 mg/kg was 20% in the assay on male mice (setting [6]) and 2% in the assay with male mice (setting [7]). Also, in assay [2], the “Antiox. effect, % of peroxidation inhibition” value is given as 14%.

Take `CCCc1c(OCCCOc2ccc(Sc3ccccc3CC(=O)O)cc2)ccc(C(C)=O)c1O` [Compound 25, 2-(4-(3-(4-Acetyl-3-hydroxy-2-propylphenoxy)propoxy)phenylsulfanyl)phenylacetic Acid]: at LTB4 receptor, the inhibition at 20 µM was 19%. The “Inh. of LTB4 biosynth., %” value in assay [1] was determined as 100%. For the same molecule, the inhibition in vivo at 100 mg/kg in the assay on Wistar-Han rats is 7%; in the assay on rats (setting [3]), 4%; with rats (setting [4]) it was 38%; in the assay on rats (setting [5]) it was 44%. In addition, the IC50 on LTD4 receptor was 37.5 µM. Further, at LTD4 receptor, the inhibition at 100 µM is 71%. The inhibition in vivo at 200 mg/kg is 20% in the assay on male mice (setting [6]) and 16% in the assay on male mice (setting [7]). Further, the “Antiox. effect, % of peroxidation inhibition” value in assay [2] stood at 23%.

Turning to `CCCc1c(OCCCCOc2ccc(Sc3ccccc3C(=O)O)cc2)ccc(C(C)=O)c1O` [Compound 7], the results for the IC50 at LTB4 receptor and on LTD4 receptor were 12 µM and 13.6 µM, respectively. The inhibition at 20 µM on LTB4 receptor is 68%. Moreover, the “Inh. of LTB4 biosynth., %” value in assay [1] stood at 100%. In addition, the inhibition in vivo at 100 mg/kg in the assay on Wistar-Han rats turned out to be 41%; in the assay with rats (setting [3]) it was 14%; in the assay with rats (setting [4]), 35%; in the assay with rats (setting [5]), 26%. The inhibition at 100 µM on LTD4 receptor is 100%. The inhibition in vivo at 200 mg/kg in the assay with male mice (setting [6]) was 16%; in the assay on male mice (setting [7]) it was 5%. Moreover, the “Antiox. effect, % of peroxidation inhibition” value in assay [2] amounted to 16%.
